# Measured values reported in patent US12568969B2, “Pyridine compounds for controlling invertebrate pests” (FMC Corporation, priority 2020, dated 2026).
# Experiments:
# [1] = system: diamondback moth (Plutella xylostella (L.)); experiment: Test A: control of diamondback moth on mustard plant, spray; assay type: in vivo; conditions: sprayed at 250 ppm; assessed after 6 days
# Method: (§1) Test compounds were formulated using a solution containing 10% acetone, […] and 300 ppm Activator 909 non-ionic surfactant (Loveland Products, Loveland, Colorado, USA). The formulated compounds were applied in 1 mL of liquid through an atomizer nozzle positioned 1.27 cm (0.5 inches) above the top of each test unit. Test compounds were sprayed at the rates indicated, and each test was replicated three times.
# For evaluating control of diamondback moth (Plutella xylostella (L.)) the test unit consisted of a small open container with a 12-14-day-old mustard plant inside. This was pre-infested with ˜50 neonate larvae that were dispensed into the test unit via corn cob grits using an inoculator. The larvae moved onto the test plant after being dispensed into the test unit.
# Test compounds were formulated and sprayed at 250 ppm. After spraying of the formulated test compound, each test unit was allowed to dry for 1 hour and then a black, screened cap was placed on top. The test units were held for 6 days in a growth chamber at 25° C. and 70% relative humidity. Plant feeding damage was then visually assessed based on foliage consumed, and larvae were assessed for mortality.
# [2] = system: Western Flower Thrips (Frankliniellla occidentalis (Pergande)); experiment: Test G: control of Western Flower Thrips on Soleil bean plant, spray; assay type: in vivo; conditions: sprayed at 250 ppm; 6 days
# Method: as §1
# For evaluating control of the Western Flower Thrips (Frankliniellla occidentalis (Pergande)) through contact and/or systemic means, the test unit consisted of a small open container with a 5-7-day-old Soleil bean plant inside.
# Test compounds were formulated and sprayed at 250 ppm. After spraying, the test units were allowed to dry for 1 hour, and then about 60 thrips (adults and nymphs) were added to each unit. A black, screened cap was placed on top, and the test units were held for 6 days at 25° C. and 45-55% relative humidity. Each test unit was then visually assessed for plant damage and insect mortality.
# [3] = system: corn planthopper (Peregrinus maidis (Ashmead)); experiment: whole plant or invertebrate; assay type: in vivo; conditions: for mortality at 50 ppm / mortality at 250 ppm: Peregrinus maidis, 144 h, 6 days; for Control Efficacy CPH: corn planthopper
# Summary of the method: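 Corn plants 3-4 days old were sprayed at 250, 50 and/or 10 ppm in 10% acetone with 300 ppm non-ionic surfactant, three replicates, contact and/or systemic exposure. After 1 h drying, ~15-20 nymphs (18-to-21-day-old) were added; mortality assessed visually after 6 days at 22-24° C, 50-70% RH.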
# [4] = system: green peach aphid (Myzus persicae (Sulzer)); experiment: Test D: control of green peach aphid on radish plant, spray; assay type: in vivo; conditions: for mortality at 250 ppm / mortality at 50 ppm: Myzus persicae, 144 h, 6 days; for Control Efficacy GPA: green peach aphid
# Summary of the method: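 Radish plants (12-15 days old) pre-infested with 30-40 aphids, sprayed with compound in 10% acetone/water with 300 ppm non-ionic surfactant at 250 and/or 50 ppm, three replicates. Held 6 days at 19-21 °C, 50-70% relative humidity, then mortality scored visually.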
# [5] = system: cotton melon aphid (Aphis gossypii (Glover)); experiment: whole plant or invertebrate; assay type: in vivo; conditions: for mortality at 50 ppm / mortality at 250 ppm: Aphis gossypii, 144 h, 6 days; for Control Efficacy CMA: cotton melon aphid
# Summary of the method: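 Compounds were formulated in a solution of 10% acetone, […] and 300 ppm Activator 909 non-ionic surfactant and sprayed as 1 mL through an atomizer nozzle 1.27 cm (0.5 inches) above each test unit, with three replicates. Units were pre-infested with 30-40 aphids on leaf pieces via the cut-leaf method, soil covered with sand, then kept 6 days at 19° C. and 70% relative humidity before visual mortality scoring.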
# [6] = system: sweetpotato whitefly (Bemisia tabaci (Gennadius)); experiment: Test F: control of sweetpotato whitefly on cotton plant, spray; assay type: in vivo; conditions: 312 h, 13 days; for mortality at 50 ppm: sprayed at 50 ppm; for mortality at 250 ppm: sprayed at 250 ppm
# Summary of the method: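 Cotton plants 12–14 days old, trimmed to one true leaf and carrying at least 15 whitefly eggs, were sprayed at 250 and/or 50 ppm in acetone/water with non-ionic surfactant, three replicates. After 13 days at 28° C and 50-70% relative humidity, insect mortality was scored visually.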
# [7] = system: potato leafhopper (Empoasca fabae (Harris)); experiment: Test C: control of potato leafhopper on Soleil bean plant, spray; assay type: in vivo; conditions: for mortality at 250 ppm: Empoasca fabae, 144 h, 6 days; for Control Efficacy PLH: potato leafhopper
# Method: as §1
# For evaluating control of potato leafhopper (Empoasca fabae (Harris)) through contact and/or systemic means, the test unit consisted of a small open container with a 5-6-day-old Soleil bean plant (primary leaves emerged) inside. White sand was added to the top of the soil, and one of the primary leaves was excised prior to application of the test compound.
# […] After spraying of the formulated test compound, the test units were allowed to dry for 1 hour before they were post-infested with 5 potato leafhoppers (18-to-21-day-old adults). A black, screened cap was placed on the top of the test unit, and the test units were held for 6 days in a growth chamber at 20° C. and 70% relative humidity. Each test unit was then visually assessed for insect mortality.
# [8] = Vapor pressure estimated by GC/MS retention time correlation; assay type: physicochemical
# Method: The procedures to obtain the vapor pressure values for both compounds are as follows: A solution of the test compound was prepared in acetonitrile at a concentration of 50 μg/mL and was then analyzed by gas chromatography/mass spectrometry (GC/MS). A linear correlation of retention times vs. known vapor pressure values of standard compounds is used to obtain an estimate of the vapor pressure of the test compounds by using interpolation. Detection and retention time of the subject compounds are confirmed by interpretation of the mass spectrum.
Compound,control efficacy (40% or less feeding damage and/or 100% mortality) [1],mortality at 50 ppm ([3]; sprayed at 50 ppm) [%],mortality at 250 ppm ([3]; sprayed at 250 ppm) [%],mortality at 250 ppm ([4]; sprayed at 250 ppm) [%],mortality at 50 ppm ([5]; sprayed at 50 ppm) [%],mortality at 250 ppm ([5]; sprayed at 250 ppm) [%],mortality at 250 ppm ([7]; sprayed at 250 ppm) [%],mortality at 50 ppm ([4]; sprayed at 50 ppm) [%],other results
FC(c1ccc(OC(F)(F)F)cc1)c1c(Br)cncc1-n1nc(Br)c(Br)n1 (racemic) [Compound 29],very good to excellent levels of control efficacy,,,,,,,,control efficacy (30% or less plant damage and/or 100% mortality) [2]: very good to excellent levels of control efficacy
Fc1cncc(-n2cccn2)c1C(F)c1ccc(SC(F)(F)F)cc1 (stereo not drawn) [Compound 1],very good to excellent levels of control efficacy,≥ 80,≥ 80,≥ 80,≥ 80,≥ 80,,,mortality at 50 ppm [6]: ≥ 70%; mortality at 250 ppm [6]: ≥ 70%; control efficacy (30% or less plant damage and/or 100% mortality) [2]: very good to excellent levels of control efficacy
Fc1cncc(-n2nccn2)c1C(F)c1ccc(OC(F)(F)F)cc1 (stereo not drawn) [Compound 8],,≥ 80,≥ 80,≥ 80,≥ 80,≥ 80,≥ 80,≥ 80,"control efficacy compared with compound A ([3]; CPH, down to 2 ppm): significantly higher control efficacy than compound A; Control Efficacy CPH ([3]; sprayed at 2 ppm): 89%; Control Efficacy CPH ([3]; sprayed at 10 ppm): 95%; Control Efficacy CPH ([3]; sprayed at 50 ppm): 100%; Control Efficacy CPH ([3]; sprayed at 250 ppm): 100%; control efficacy compared with compound A ([7]; PLH, at 250 ppm): significantly higher control efficacy than compound A; Control Efficacy PLH ([7]; sprayed at 50 ppm): 0; Control Efficacy PLH ([7]; sprayed at 250 ppm): 93; control efficacy compared with compound A ([4]; GPA, down to 2 ppm): significantly higher control efficacy than compound A; Control Efficacy GPA ([4]; sprayed at 2 ppm): 100%; Control Efficacy GPA ([4]; sprayed at 10 ppm): 94%; Control Efficacy GPA ([4]; sprayed at 50 ppm): 100%; Control Efficacy GPA ([4]; sprayed at 250 ppm): 100%; control efficacy compared with compound A ([5]; CMA, down to 2 ppm): significantly higher control efficacy than compound A; Control Efficacy CMA ([5]; sprayed at 2 ppm): 79%; Control Efficacy CMA ([5]; sprayed at 10 ppm): 88%; Control Efficacy CMA ([5]; sprayed at 50 ppm): 96%; Control Efficacy CMA ([5]; sprayed at 250 ppm): 80%; Vapor Pressure [8]: 6.04E−06; vapor pressure relative to compound A ([8]; compared with compound A): ~1000 times lower"
FC(c1ccc(OC(F)(F)F)cc1)c1ccncc1-n1nccn1 (stereo not drawn) [Compound 9],,≥ 80,≥ 80,,≥ 80,≥ 80,≥ 80,,
FC(c1ccc(OC(F)(F)F)cc1)c1ccncc1-n1cccn1 (stereo not drawn) [Compound 11],,≥ 80,≥ 80,≥ 80,≥ 80,≥ 80,≥ 80,,
FC(c1ccc(OC(F)(F)F)cc1)c1c(Cl)cncc1-n1nccn1 (stereo not drawn) [Compound 14],,≥ 80,≥ 80,≥ 80,≥ 80,≥ 80,≥ 80,≥ 80,mortality at 50 ppm [6]: ≥ 70%; mortality at 250 ppm [6]: ≥ 70%
Fc1cncc(-n2cccn2)c1C(F)c1ccc(C(F)(F)F)cc1 (stereo not drawn) [Compound 21],very good to excellent levels of control efficacy,≥ 80,≥ 80,≥ 80,≥ 80,≥ 80,≥ 80,≥ 80,
